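Cells were grown in 96-well plates and exposed to each compound for 48 hours at five concentrations; endpoints were interpolated linearly between bracketing concentrations, or set to the highest concentration if not reached. The concentration for 50% growth inhibition is given as GI50.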 Calls of active or inactive are those of the source. Cut-off read from the data, not from the text of the source: active = GI50 up to about 1.1 µM and inactive = higher.
Key:
Assay in all cases: DTP human tumour cell line panel, 48 h
786-0 = tested on: 786-0
A498 = tested on: A498
A549 = tested on: A549
ACHN = tested on: ACHN
BT-549 = tested on: BT-549
CAKI-1 = tested on: CAKI-1
CCRF-CEM = tested on: CCRF-CEM
COLO 205 = tested on: COLO 205
DU-145 = tested on: DU-145
EKVX = tested on: EKVX
HCC 2998 = tested on: HCC 2998
HCT-116 = tested on: HCT-116
HCT-15 = tested on: HCT-15
HL-60 = tested on: HL-60
HOP-62 = tested on: HOP-62
HOP-92 = tested on: HOP-92
HT-29 = tested on: HT-29
Hs-578T = tested on: Hs-578T
IGROV-1 = tested on: IGROV-1
K562 = tested on: K562
KM12 = tested on: KM12
LOX IMVI = tested on: LOX IMVI
M14 = tested on: M14
MCF7 = tested on: MCF7
MDA-MB-231 = tested on: MDA-MB-231
MDA-MB-435 = tested on: MDA-MB-435
MDA-N = tested on: MDA-N
MOLT-4 = tested on: MOLT-4
Malme-3M = tested on: Malme-3M
NCI-H226 = tested on: NCI-H226
NCI-H23 = tested on: NCI-H23
NCI-H460 = tested on: NCI-H460
NCI-H522 = tested on: NCI-H522
NCI/ADR-RES = tested on: NCI/ADR-RES
OVCAR-3 = tested on: OVCAR-3
OVCAR-4 = tested on: OVCAR-4
OVCAR-5 = tested on: OVCAR-5
OVCAR-8 = tested on: OVCAR-8
PC-3 = tested on: PC-3
RPMI-8226 = tested on: RPMI-8226
RXF 393 = tested on: RXF 393
SF-268 = tested on: SF-268
SF-295 = tested on: SF-295
SF-539 = tested on: SF-539
SK-MEL-28 = tested on: SK-MEL-28
SK-MEL-2 = tested on: SK-MEL-2
SK-MEL-5 = tested on: SK-MEL-5
SK-OV-3 = tested on: SK-OV-3
SN12C = tested on: SN12C
SNB-19 = tested on: SNB-19
SNB-75 = tested on: SNB-75
SR = tested on: SR
SW-620 = tested on: SW-620
T47D = tested on: T47D
TK-10 = tested on: TK-10
U-251 = tested on: U-251
UACC-257 = tested on: UACC-257
UACC-62 = tested on: UACC-62
UO-31 = tested on: UO-31

With COc1ccc(CC2c3cc(Oc4cc(CC5c6cc(OC)c(OC)cc6CCN5C)ccc4O)c(OC)cc3CCN2C)cc1 (stereo not drawn) the GI50 (786-0) was 3.02 µM (inactive), the GI50 (A498) was 7.96 µM (inactive) and the GI50 (A549) was 6.73 µM (inactive). The GI50 (ACHN) was 7.01 µM (inactive), the GI50 (BT-549) was 6.64 µM (inactive) and the GI50 (CAKI-1) was 1.48 µM (inactive). The GI50 (CCRF-CEM) was 0.519 µM (active), the GI50 (COLO 205) was 7.06 µM (inactive) and the GI50 (DU-145) was 1.3 µM (inactive). The GI50 (EKVX) was 8.65 µM (inactive), the GI50 (HCC 2998) was 1.14 µM (inactive) and the GI50 (HCT-116) was 2.22 µM (inactive). The GI50 (HCT-15) was 2.17 µM, the GI50 (HL-60) was 7.78 µM (inactive) and the GI50 (HOP-62) was 7.93 µM (inactive). The GI50 (HOP-92) was 7.41 µM (inactive), the GI50 (HT-29) was 2.06 µM (inactive) and the GI50 (Hs-578T) was 9.62 µM (inactive). The GI50 (IGROV-1) was 8.59 µM (inactive), the GI50 (K562) was 1.36 µM (inactive) and the GI50 (KM12) was 1.77 µM (inactive). For the same compound, the GI50 (LOX IMVI) was 2.55 µM (inactive), the GI50 (M14) was 5.64 µM (inactive) and the GI50 (MCF7) was 5.81 µM (inactive). For the same compound, the GI50 (MDA-MB-231) was 7.91 µM (inactive), the GI50 (MDA-MB-435) was 4.14 µM (inactive) and the GI50 (MDA-N) was 7.1 µM (inactive). For the same compound, the GI50 (MOLT-4) was 5.52 µM (inactive), the GI50 (Malme-3M) was 10.1 µM (inactive) and the GI50 (NCI-H226) was 10.2 µM (inactive). The GI50 (NCI-H23) was 8.18 µM (inactive), the GI50 (NCI-H460) was 6.98 µM (inactive) and the GI50 (NCI-H522) was 6.81 µM (inactive). For the same compound, the GI50 (NCI/ADR-RES) was 7.48 µM (inactive), the GI50 (OVCAR-3) was 8.05 µM (inactive) and the GI50 (OVCAR-4) was 2.42 µM (inactive). The GI50 (OVCAR-5) was 9.44 µM (inactive), the GI50 (OVCAR-8) was 5.96 µM (inactive) and the GI50 (PC-3) was 5.47 µM (inactive). For the same compound, the GI50 (RPMI-8226) was 2.44 µM (inactive), the GI50 (RXF 393) was 5.92 µM (inactive) and the GI50 (SF-268) was 9.14 µM (inactive). For the same compound, the GI50 (SF-295) was 8.2 µM (inactive), the GI50 (SF-539) was 8.63 µM (inactive) and the GI50 (SK-MEL-28) was 7.8 µM (inactive). The GI50 (SK-MEL-2) was 8.65 µM (inactive), the GI50 (SK-MEL-5) was 7.6 µM (inactive) and the GI50 (SK-OV-3) was 9.29 µM (inactive). For the same compound, the GI50 (SN12C) was 8 µM (inactive), the GI50 (SNB-19) was 6.1 µM (inactive) and the GI50 (SNB-75) was 8.45 µM (inactive). For the same compound, the GI50 (SR) was 1.43 µM (inactive), the GI50 (SW-620) was 1.66 µM (inactive) and the GI50 (T47D) was 6.43 µM (inactive). The GI50 (TK-10) was 3.87 µM (inactive), the GI50 (U-251) was 5.74 µM (inactive) and the GI50 (UACC-257) was 8.04 µM (inactive). The GI50 (UACC-62) was 8.65 µM (inactive) and the GI50 (UO-31) was 5.25 µM (inactive).

For CC(C)(C)N1Cc2ccccc2/C(=C/Sc2ccccc2)C1=O, the GI50 (786-0) was 10.7 µM (inactive), the GI50 (A498) was 20 µM (inactive) and the GI50 (A549) was 16.2 µM (inactive). The GI50 (ACHN) was 17.9 µM (inactive), the GI50 (BT-549) was 6.53 µM (inactive) and the GI50 (CAKI-1) was 16.6 µM (inactive). The GI50 (CCRF-CEM) was 5.25 µM (inactive), the GI50 (COLO 205) was 18.1 µM (inactive) and the GI50 (DU-145) was 16.9 µM (inactive). For the same compound, the GI50 (EKVX) was 16.8 µM (inactive), the GI50 (HCC 2998) was 18.2 µM (inactive) and the GI50 (HCT-116) was 7.03 µM (inactive). The GI50 (HCT-15) was 12.9 µM, the GI50 (HL-60) was 13.5 µM (inactive) and the GI50 (HOP-62) was 17.3 µM (inactive). The GI50 (HOP-92) was 13.3 µM (inactive), the GI50 (HT-29) was 17 µM (inactive) and the GI50 (Hs-578T) was 16.7 µM (inactive). For the same compound, the GI50 (IGROV-1) was 10.1 µM (inactive), the GI50 (K562) was 5.85 µM (inactive) and the GI50 (KM12) was 17 µM (inactive). The GI50 (LOX IMVI) was 2.64 µM (inactive), the GI50 (M14) was 8.15 µM (inactive) and the GI50 (MCF7) was 7.19 µM (inactive). For the same compound, the GI50 (MDA-MB-231) was 16.5 µM (inactive), the GI50 (MDA-MB-435) was 7.38 µM (inactive) and the GI50 (MDA-N) was 6.55 µM (inactive). The GI50 (MOLT-4) was 3.21 µM (inactive), the GI50 (Malme-3M) was 13.3 µM (inactive) and the GI50 (NCI-H226) was 8.83 µM (inactive). For the same compound, the GI50 (NCI-H23) was 6.84 µM (inactive), the GI50 (NCI-H460) was 14.9 µM (inactive) and the GI50 (NCI-H522) was 2.75 µM (inactive). The GI50 (NCI/ADR-RES) was 14.1 µM (inactive), the GI50 (OVCAR-3) was 12 µM (inactive) and the GI50 (OVCAR-4) was 7.01 µM (inactive). For the same compound, the GI50 (OVCAR-5) was 19.4 µM (inactive), the GI50 (OVCAR-8) was 8.11 µM (inactive) and the GI50 (PC-3) was 12.6 µM (inactive). For the same compound, the GI50 (RPMI-8226) was 5.82 µM (inactive), the GI50 (RXF 393) was 16.2 µM (inactive) and the GI50 (SF-268) was 2.44 µM (inactive). For the same compound, the GI50 (SF-295) was 17.4 µM (inactive), the GI50 (SF-539) was 8.57 µM (inactive) and the GI50 (SK-MEL-28) was 17.5 µM (inactive). The GI50 (SK-MEL-2) was 15.2 µM (inactive), the GI50 (SK-MEL-5) was 6.9 µM (inactive) and the GI50 (SK-OV-3) was 17.4 µM (inactive). The GI50 (SN12C) was 8.17 µM (inactive), the GI50 (SNB-19) was 16 µM (inactive) and the GI50 (SNB-75) was 16 µM (inactive). For the same compound, the GI50 (SR) was 2.64 µM (inactive), the GI50 (SW-620) was 7.21 µM (inactive) and the GI50 (T47D) was 16.6 µM (inactive). The GI50 (TK-10) was 19 µM (inactive), the GI50 (U-251) was 13.6 µM (inactive) and the GI50 (UACC-257) was 14.3 µM (inactive). The GI50 (UACC-62) was 7.69 µM (inactive) and the GI50 (UO-31) was 12.3 µM (inactive).
